Earlier results as cited in PMC6958329, “New ^55Co-labeled Albumin-Binding Folate Derivatives as Potential PET Agents for Folate Receptor Imaging” (Pharmaceuticals, 2019).
Like-named read-outs stand apart in the source and are kept apart here.

System: tumor
Parameters: method as in PMID 27145400
Details: previously reported, cited from earlier work

Compound | tumor uptake (4 h post-injection) | tumor uptake (24 h post-injection)
Nc1nc2ncc(CNc3ccc(C(=O)N[C@@H](CCC(=O)NC(CCCCNC(=O)CCC(C(=O)O)N4CCN(CC(=O)O)CCN(CC(=O)O)CC4)C(=O)NC(CCCCNC(=O)CCCc4ccc(I)cc4)C(=O)O)C(=O)O)cc3)nc2c(=O)[nH]1.[64Cu] (stereo partly drawn) [[^64Cu]Cu-rf42] | 14.5% ± 1.0% | 16% ± 4%
Nc1nc2ncc(CNc3ccc(C(=O)N[C@@H](CCC(=O)NC(CCCCNC(=O)CCC(C(=O)O)N4CCN(CC(=O)O)CCN(CC(=O)O)CC4)C(=O)NC(CCCCNC(=O)CCCc4ccc(I)cc4)C(=O)O)C(=O)O)cc3)nc2c(=O)[nH]1.[68Ga] (stereo partly drawn) [[^68Ga]Ga-rf42] | 12% ± 2% | –
